Laboratory results: patent US20240099302A1, “Use of a Biobased Composition Comprising Ferulated Chitosan for Regulating and Stimulating Plant Growth” (FYTEKO SA, priority 2020, published 2024)

Tested on: new guinea impatient plants cultivar Sony pink
Test: Effect of foliar spraying on flowering of new guinea impatient plants
Format: in vivo
Details: foliar spraying once a week for 8 weeks, evaluated 22 weeks after sowing
Procedure: Different treatments were applied by foliar spraying on one-month old new guinea impatient plants cultivar Sony pink once a week for 8 weeks. The effect of foliage of application on the inflorescence was evaluated at the end of the flowering step (22 weeks after sowing) and the results are shown in Table 12.

Compound | Average diameter of the flowers | Total number of flowers per plant
COc1cc(/C=C/C(=O)O)ccc1O [Ferulic acid] | 6.40 cm | 60.0
Diferulic acid | 6.52 cm | 74.2
